US11034725B2, “Compositions and methods for treating cardiovascular disease” (Genentech, Inc., priority 2016, dated 2021)
pEC50, pIC50, pKd: −log10 of the molar value. Values joined by “and” are separate entries in the source; they are usually repeats but may differ in a detail not shown here. Equal values may be shown once. “Also recorded” adds a separate entry of the source. Bridge positions count the residues as written; N and C are the ends. Peptide text beside a SMILES is read from it.

Assays:
PCSK9Δhelix [1] = biological target: T1, PCSK9Δhelix (Homo sapiens, UniProt Q8NBP7); test: PCSK9Δhelix/Ab20 TR-FRET binding assay; details: for pIC50: TR-FRET, Example 7, read-out: PCSK9Δhelix/Ab20 IC50
T1 construct: Human PCSK9 construct M1-Q692 with an engineered TEV site (residue deletion Y166, R167); made in house; host or cells: CHO

PCSK9Δhelix [2] = biological target: T1, PCSK9Δhelix; test: Phage competition ELISA; details: binding of peptide-displaying phage to PCSK9Δhelix
Procedure: The sequences of selected clones were fused to the N-terminus of M13 major coat protein (p8) using Kunkel mutagenesis method (Kunkel et al., Methods Enzymol 154, 367-82). The resulting construct was transformed to E. Coli. XL1 blue, single colony was grown in 1 mL 2YT supplemented with 50 μg/mL carbenicillin, 10 μg/mL Tetracycline and M13 KO7 helper phage at 37° C. for 2 h, Kanamycin was added to final concentration of 25 μg/mL, growth was continued at 37° C. for 6 h. The culture was transferred to 30 mL 2YT supplemented with 50 μg/mL carbenicillin and 25 μg/mL kanamycin and grown at 37° C. overnight. The next day, the phage was harvested and purified using the standard protocol (Tonikian et al. Nat Protoc. 2007; 2(6):1368-86). […] The bound phage was detected with anti-M13-HRP and the ELISA signal was read at OD450 nm. […] Sub-saturating phage concentration that gave 80% of maximum binding signal was determined by the binding curve.
IC50 measurements were performed by mixing a fixed sub-saturating concentration of peptide-displaying phage with a serial dilution of synthetic peptides in PBT buffer. […] The plates were then washed 10 times with PBT buffer and the bound phage was detected by anti-M13-HRP. […]

His-EGF(A)-Fc = His-EGF(A)-Fc TR-FRET counterscreen; details: counterscreen, Example 7
PCSK9 [3] = biological target: T2, PCSK9 (Homo sapiens, UniProt Q8NBP7); test: PCSK9/EGF(A) TR-FRET binding assay
PCSK9 [4] = biological target: T2, PCSK9; test: Phage competition ELISA; format: binding; details: binding of peptide-displaying phage to PCSK9
Procedure: The sequences of selected clones were fused to the N-terminus of M13 major coat protein (p8) using Kunkel mutagenesis method (Kunkel et al., Methods Enzymol 154, 367-82). The resulting construct was transformed to E. Coli. XL1 blue, single colony was grown in 1 mL 2YT supplemented with 50 μg/mL carbenicillin, 10 μg/mL Tetracycline and M13 KO7 helper phage at 37° C. for 2 h, Kanamycin was added to final concentration of 25 μg/mL, growth was continued at 37° C. for 6 h. The culture was transferred to 30 mL 2YT supplemented with 50 μg/mL carbenicillin and 25 μg/mL kanamycin and grown at 37° C. overnight. The next day, the phage was harvested and purified using the standard protocol (Tonikian et al. Nat Protoc. 2007; 2(6):1368-86). The serially diluted phage solution was applied to the biotinylated PCSK9 and biotinylated PCSK9Δhelix that had been immobilized for 15 min on a 384-well MaxiSorp ImmunoPlate previously coated with 5 μg/mL NeutrAvidin and blocked with Block buffer. The plate was incubated at 4° C. for 1 h, washed 10 times with PT buffer (PBS, 0.05% Tween® 20). The bound phage was detected with anti-M13-HRP and the ELISA signal was read at OD450 nm. The background was ELISA signal that the phage directly bound to NeutrAvidin-coated plate. The data was plotted and the curve fitted with KaleidaGraph. Sub-saturating phage concentration that gave 80% of maximum binding signal was determined by the binding curve.
IC50 measurements were performed by mixing a fixed sub-saturating concentration of peptide-displaying phage with a serial dilution of synthetic peptides in PBT buffer. The mixture was added to plates coated with PCSK9 and PCSK9Δhelix and incubated for 1 h at room temperature. The plates were then washed 10 times with PBT buffer and the bound phage was detected by anti-M13-HRP. The data was plotted, curve fitted and IC50 derived by use of KaleidaGraph. All measurements were repeated 3 times independently.

PCSK9Δhelix [5] = biological target: T1, PCSK9Δhelix; test: Surface plasmon resonance biosensor-based affinity analysis (Example 4); format: binding; details: for pKd: Table 7, Target PCSK9Δhelix, SPR at 20° C., read-out: Kd
PCSK9 [6] = biological target: T2, PCSK9; test: Cell surface LDLR assay with HepG2 cells; format: cell-based; details: HepG2 cells; for pEC50: 15 μg/mL PCSK9, 4 h, FACS; for surface LDLR levels restored: maximal restoration, percent of control without PCSK9
Procedure: HepG2 cells (ATCC; Manassas, Va.) were seeded into 48 well plates (Corning; Corning, N.Y.) at 1×10^5 cells per well in high glucose medium (DMEM, Gibco; Carlsbad, Calif.) containing 2 mM glutamine (Sigma), penicillin/streptomycin (Gibco) and 10% FBS (Sigma; St. Louis, Mo.) and incubated overnight. Then the medium was changed to DMEM containing 10% lipoprotein deficient serum (LPDS, Sigma). After 24 h, 15 μg/mL PCSK9 was incubated with peptides or Fab33 for 30 min, added to the cells and incubated at 37° C. for 4 h. Cells were rinsed with PBS and detached using Cell Dissociation Buffer in PBS (Gibco). After centrifugation, the resuspended cells were incubated with 1:20 anti LDLR antibody (Progen Biotechnik; Heidelberg, Germany) on ice for 10 min. The samples were then washed with PBS and incubated with 1:200 diluted goat anti mouse IgG (H+L) Alexa Fluor 488 (Invitrogen; Carlsbad, Calif.) on ice for 5 min. After two PBS washes, cells were re suspended in PBS containing 2.5 μg/mL of propidium iodide and analyzed on a dual laser flow cytometer (FACScan, Becton Dickinson; Franklin Lakes, N.J.). Relative fluorescence units (RFUs) were used to quantify LDLR expression levels on the HepG2 cell surface. Cell surface LDLR levels were expressed as percent of LDLR levels measured in the absence of PCSK9 (=control).
The effect of Compound 229 on PCSK9-mediated LDL receptor degradation was measured in a HepG2 cell assay as previously described (Zhang et al., J Biol Chem. 2014 Jan. 10; 289(2):942-55). Peptides at various concentrations were preincubated with 15 μg/mL PCSK9 in the presence of 0.5% DMSO for 30 min prior to the addition to cells. After a 4 h incubation, the cells were processed for measurements of LDL receptor surface levels by flow cytometry as described (Zhang et al., J Biol Chem. 2014 Jan. 10; 289(2):942-55) (FIG. 37).

PCSK9 [7] = biological target: T2, PCSK9; details: Zhang et al. 2014; cited from earlier work
LDLR ectodomain = biological target: T3, LDLR ectodomain (Homo sapiens, UniProt P01130); details: biolayer interferometry, Lipari et al. 2012; read-out: Kd, binding to LDLR, previously reported; cited from earlier work
T3 construct: purchased R & D Systems

In the case of `CC[C@H](C)[C@@H]1NC(=O)[C@H](CCCNC(=N)N)NC(=O)[C@H](CCC(N)=O)NC(=O)[C@H](CC(C)C)NC(=O)[C@H](CC(N)=O)NC(=O)[C@H](Cc2c[nH]c3ccccc23)NC(=O)[C@@H]2CCCN2C(=O)[C@H](CC(C)C)NC(=O)[C@H](CCCNC(=N)N)NC(=O)[C@@H](NC(=O)CNC(=O)[C@H](CO)NC(=O)CNC(=O)[C@@H](NC(=O)[C@H](Cc2c[nH]c3ccccc23)NC(=O)[C@H](CC(=O)O)NC(=O)[C@H](CC(C)C)NC(=O)[C@H](Cc2ccc(O)cc2)NC(=O)[C@H](CCC(=O)O)NC(=O)[C@H](CCC(=O)O)NC(=O)[C@H](Cc2c[nH]c3ccccc23)NC(=O)[C@H](CO)NC(=O)[C@@H](NC(=O)[C@H](Cc2ccccc2)NC(=O)[C@@H](NC(=O)[C@@H](NC(C)=O)[C@@H](C)O)C(C)C)[C@@H](C)O)C(C)C)CSSC[C@@H](C(N)=O)NC(=O)[C@@H]2CCCN2C(=O)[C@H](CC(C)C)NC(=O)CNC1=O` [Compound 19] (Ac-TVFTSWEEYLDWVGSGCRLPWNLQRIGLPC-NH2; disulfide 17-30), the “inhibition in the PCSK9Δhelix/Ab20 binding assay” value (PCSK9Δhelix [1]) was “potent inhibitors”, the pIC50 (PCSK9Δhelix [1]) was 8.70 and the “IC50 in phage competition ELISA” value (PCSK9Δhelix [2]) was “single digit nanomolar range”. The pIC50 (His-EGF(A)-Fc) was < 4.30, the “inhibition in the PCSK9/EGF(A) binding assay” value (PCSK9 [3]) was “potent inhibitor” and the pIC50 (PCSK9 [3]; TR-FRET, Example 7, read-out: PCSK9/EGF(A) IC50) was 8.05. The “IC50 in phage competition ELISA” value (PCSK9 [4]; listed as Pep2-8_K9gvpep4) was “low nanomolar range; also recorded: single digit nanomolar range”, the “Kd range for PCSK9Δhelix binding” value (PCSK9Δhelix [5]) was “sub-nanomolar range” and the pKd (PCSK9Δhelix [5]) was 10.00. The pEC50 (PCSK9 [6]) was ~6.30 and the “surface LDLR levels restored” value (PCSK9 [6]) was 100%.
In the case of Ac-TAFTSWEEYLDWV-NH2 [Pep2-8V2A], the “reduction of affinity for PCSK9 versus Pep2-8” value (PCSK9 [7]) is given as “about 10 fold”.
In the case of “Ac-TVFTSWEEYLDWVGSGDLMPWNLVRIGLLR-NH2 [Compound 20]”, the “inhibition in the PCSK9Δhelix/Ab20 binding assay” value (PCSK9Δhelix [1]) was “low nanomolar concentrations”, the pIC50 (PCSK9Δhelix [1]) was 9.00 and the “IC50 in phage competition ELISA” value (PCSK9Δhelix [2]) was “single digit nanomolar range”. The pIC50 (His-EGF(A)-Fc) was < 4.30, the “inhibition in the PCSK9/EGF(A) binding assay” value (PCSK9 [3]) was “significantly improved relative to Pep2-8” and the “IC50 in phage competition ELISA” value (PCSK9 [4]; listed as Pep2-8_K9gvpep7) was “low nanomolar range; also recorded: single digit nanomolar range”. For the same molecule, the “Kd range for PCSK9Δhelix binding” value (PCSK9Δhelix [5]) was “sub-nanomolar range”, the pKd (PCSK9Δhelix [5]) was 9.44 and the pEC50 (PCSK9 [6]) was 5.30 to 6.00. For the same molecule, the “surface LDLR levels restored” value (PCSK9 [6]) was 100%.
In the case of “wildtype PCSK9: wildtype proprotein convertase subtilisin/kexin type 9”, the pKd (LDLR ectodomain) is listed as 6.89 and 6.77.
